In PubChem BioAssay (NCI):
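Briefly, cells in 96-well plates were exposed to five compound concentrations for 48 h, and endpoints were estimated by linear interpolation. TGI marks complete inhibition of growth.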

Key:
Test in all cases: NCI-60 cell line screen, 48 h
PC-3 prostate = system: PC-3 prostate
SK-MEL-5 melanoma = system: SK-MEL-5 melanoma
OVCAR-4 ovarian = system: OVCAR-4 ovarian
RPMI-8226 leukemia = system: RPMI-8226 leukemia
HOP-92 NSCLC = system: HOP-92 NSCLC
NCI-H23 lung = system: NCI-H23 lung
MDA-N = system: MDA-N
SW-620 colon = system: SW-620 colon
DU-145 prostate = system: DU-145 prostate
K-562 leukemia = system: K-562 leukemia
SN12C renal = system: SN12C renal
NCI-H226 lung = system: NCI-H226 lung
SF-268 CNS = system: SF-268 CNS
UACC-257 melanoma = system: UACC-257 melanoma
HOP-62 NSCLC = system: HOP-62 NSCLC
A498 renal = system: A498 renal
OVCAR-8 ovarian = system: OVCAR-8 ovarian
ACHN renal = system: ACHN renal
MDA-MB-231 breast = system: MDA-MB-231 breast
SNB-19 CNS = system: SNB-19 CNS

SMILES | TGI (PC-3 prostate) | TGI (SK-MEL-5 melanoma) | TGI (OVCAR-4 ovarian) | TGI (RPMI-8226 leukemia) | TGI (HOP-92 NSCLC) | TGI (NCI-H23 lung) | TGI (MDA-N) | TGI (SW-620 colon) | TGI (DU-145 prostate) | TGI (K-562 leukemia) | TGI (SN12C renal) | TGI (NCI-H226 lung) | TGI (SF-268 CNS) | TGI (UACC-257 melanoma) | TGI (HOP-62 NSCLC) | TGI (A498 renal) | TGI (OVCAR-8 ovarian) | TGI (ACHN renal) | TGI (MDA-MB-231 breast) | TGI (SNB-19 CNS)
CN(Cc1cnc2nc(N)nc(N)c2n1)c1ccc(C(=O)NC(CCC(=O)NCCC(P(=O)(O)O)P(=O)(O)O)C(=O)O)cc1 (stereo not drawn) | > 100 µM | > 100 µM | > 100 µM | > 100 µM | > 100 µM | > 100 µM | > 100 µM | > 100 µM | > 100 µM | > 100 µM | > 100 µM | > 100 µM | > 100 µM | > 100 µM | > 100 µM | > 100 µM | > 100 µM | > 100 µM | > 100 µM | > 100 µM
CC1(c2cccs2)CC(c2cccs2)=C(C#N)C(=C(C#N)C#N)N1 (stereo not drawn) | 29.8 µM | 28.8 µM | 32.3 µM | 61.5 µM | 30.8 µM | 38.8 µM | 31.1 µM | 43.7 µM | 28.9 µM | > 100 µM | 35.6 µM | 90 µM | 35.9 µM | 32.7 µM | 39.7 µM | 35.8 µM | 42.9 µM | 32.1 µM | 50.6 µM | 36.6 µM
C[N+](CCCl)(CCCl)Cc1cccc2cccc([N+](=O)[O-])c12 | > 100 µM | > 100 µM | > 100 µM | > 100 µM | > 100 µM | > 100 µM | > 100 µM | > 100 µM | > 100 µM | > 100 µM | > 100 µM | > 100 µM | > 100 µM | > 100 µM | > 100 µM | > 100 µM | > 100 µM | > 100 µM | > 100 µM | > 100 µM
O=C(O)CC1NC(/C(=C/c2ccccc2)NC(=O)c2ccccc2)OC1=O (stereo not drawn) | > 100 µM | 32.3 µM | > 100 µM | 63.4 µM | > 100 µM | > 100 µM | 86.4 µM | 42 µM | > 100 µM | 56 µM | > 100 µM | 98.6 µM | > 100 µM | > 100 µM | 37.2 µM | > 100 µM | 66.5 µM | > 100 µM | 69.7 µM | 67.6 µM
CN1CCN(C(=O)CCNC(=O)Cc2ccc(C(=O)c3ccccc3)cc2)CC1 | > 100 µM | > 100 µM | > 100 µM | > 100 µM | > 100 µM | > 100 µM | 71.5 µM | > 100 µM | > 100 µM | > 100 µM | > 100 µM | > 100 µM | > 100 µM | > 100 µM | > 100 µM | > 100 µM | > 100 µM | > 100 µM | > 100 µM | > 100 µM
Oc1c(C2=NNC(c3ccc(Cl)cc3Cl)C2)ccc2ccccc12 (stereo not drawn) | > 100 µM | > 100 µM | > 100 µM | > 100 µM | > 100 µM | > 100 µM | 55.5 µM | > 100 µM | > 100 µM | 76.9 µM | > 100 µM | > 100 µM | > 100 µM | > 100 µM | > 100 µM | > 100 µM | > 100 µM | > 100 µM | > 100 µM | 
CCN(CC)CCC(=O)/C=C/c1ccccc1 | 27.3 µM | 44.8 µM | > 94.4 µM | 7.5 µM | 28.7 µM | 48.1 µM | 26.4 µM | 23.4 µM | > 73.9 µM | 13.6 µM | 38.6 µM | 44.9 µM | 15.6 µM | 31.6 µM | 54.5 µM | > 60.6 µM | 52.5 µM | 26.2 µM | 28.9 µM | 37.1 µM
O=C(NCC(=O)N1CCCC1C(=O)OC(=O)C1CCCN1C(=O)CNC(=O)OCc1ccccc1)OCc1ccccc1 (stereo not drawn) | > 100 µM | 62.3 µM | > 100 µM | 70.2 µM | > 100 µM | > 100 µM | > 100 µM | > 100 µM | > 100 µM | 72.8 µM | > 100 µM | 66.2 µM | 89 µM | 52.1 µM | 77 µM | > 100 µM | > 100 µM | > 100 µM | 54.7 µM | > 100 µM
N#Cc1c(-c2ccc(Cl)cc2)c2c([nH]c1=O)-c1ccccc1SC2 | > 100 µM | > 100 µM | > 100 µM | 98.8 µM | 71.9 µM | > 100 µM | > 100 µM | > 100 µM | > 100 µM | > 100 µM | > 100 µM | > 100 µM | > 100 µM | > 100 µM | > 100 µM | > 100 µM | > 100 µM |  | > 100 µM | > 100 µM
